Measured values taken from ChEMBL document CHEMBL1201862, “PubChem BioAssay data set” (2004).
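1) Cells in 96-well plates. 2) Compound, 48 h, 5 concentrations. 3) Linear interpolation between surrounding doses. 4) Unreached endpoint = highest concentration. GI50 = concentration required for 50% inhibition of growth.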 Activity calls are given as the source filed them. Rule as the data show it: active = GI50 up to about 1.1 µM and inactive = higher.

Columns and labels:
Assay in all cases: NCI tumour cell line growth inhibition, 48 h
T47D = tested on: T47D
SR = tested on: SR
HOP-62 = tested on: HOP-62
U-251 = tested on: U-251
COLO 205 = tested on: COLO 205
UO-31 = tested on: UO-31
SNB-75 = tested on: SNB-75
Malme-3M = tested on: Malme-3M
OVCAR-4 = tested on: OVCAR-4
MDA-MB-435 = tested on: MDA-MB-435
MOLT-4 = tested on: MOLT-4
UACC-62 = tested on: UACC-62
SK-MEL-5 = tested on: SK-MEL-5
PC-3 = tested on: PC-3
K562 = tested on: K562
SF-295 = tested on: SF-295
SF-539 = tested on: SF-539
HCC 2998 = tested on: HCC 2998
MDA-N = tested on: MDA-N
SK-MEL-28 = tested on: SK-MEL-28

Measured: GI50

O=C(Cc1ccccc1)N/N=C1\C(=O)Nc2ccccc21
inactive: T47D 63.2 µM | SR > 100 µM | HOP-62 > 100 µM | U-251 61.1 µM | COLO 205 > 100 µM | UO-31 48.2 µM | SNB-75 37.2 µM | Malme-3M > 100 µM | OVCAR-4 > 100 µM | MDA-MB-435 > 100 µM | MOLT-4 > 100 µM | UACC-62 > 100 µM | SK-MEL-5 95.9 µM | PC-3 70.5 µM | K562 > 100 µM | SF-295 25.8 µM | SF-539 23.1 µM | HCC 2998 > 100 µM | MDA-N > 100 µM

CC(=O)/N=C1\N/C(=C\c2ccc(Cl)cc2)C(=O)N1/C=C1\C(=O)Oc2ccccc2C1=O
inactive: T47D > 100 µM | SK-MEL-28 > 100 µM | SR 52.2 µM | HOP-62 > 100 µM | U-251 61.1 µM | COLO 205 > 100 µM | SNB-75 27.5 µM | Malme-3M > 100 µM | OVCAR-4 > 100 µM | MDA-MB-435 51.2 µM | MOLT-4 > 100 µM | UACC-62 26.3 µM | SK-MEL-5 47.2 µM | PC-3 > 100 µM | K562 67.3 µM | SF-295 > 100 µM | SF-539 > 100 µM | HCC 2998 > 100 µM | MDA-N > 100 µM

Fc1cc2nc3n(c2cc1F)C(c1c(F)cccc1F)SC3 (stereo not given)
inactive: T47D 37 µM | SK-MEL-28 43 µM | SR 30.1 µM | HOP-62 67.9 µM | U-251 57.3 µM | COLO 205 31.3 µM | UO-31 37.8 µM | SNB-75 31.4 µM | Malme-3M 50.8 µM | OVCAR-4 42.1 µM | MDA-MB-435 35.3 µM | MOLT-4 27.1 µM | UACC-62 38.8 µM | SK-MEL-5 17.3 µM | PC-3 37.3 µM | SF-295 37.2 µM | SF-539 39.4 µM | HCC 2998 68.4 µM | MDA-N 35.6 µM

N#C[C@H](c1nc2ccccc2s1)c1nc2ccccc2nc1Cl
inactive: T47D > 100 µM | SK-MEL-28 > 100 µM | SR > 100 µM | HOP-62 17.9 µM | U-251 > 100 µM | COLO 205 > 100 µM | UO-31 23.3 µM | SNB-75 > 100 µM | Malme-3M > 100 µM | OVCAR-4 16.3 µM | MDA-MB-435 > 100 µM | MOLT-4 > 100 µM | UACC-62 14.3 µM | SK-MEL-5 > 100 µM | PC-3 31 µM | SF-295 17.1 µM | SF-539 37 µM | HCC 2998 2.67 µM | MDA-N > 100 µM

CC(C)NC(=O)OCc1c(COC(=O)NC(C)C)c(-c2ccc[n+](COC(=O)C(C)(C)C)c2)n2c1CCC2
inactive: T47D > 100 µM | SK-MEL-28 > 100 µM | SR > 70.8 µM | HOP-62 > 71.1 µM | U-251 > 76.9 µM | COLO 205 > 93.5 µM | UO-31 64.7 µM | SNB-75 > 89.1 µM | Malme-3M > 100 µM | OVCAR-4 > 79.3 µM | MDA-MB-435 > 100 µM | MOLT-4 48.2 µM | UACC-62 35.5 µM | SK-MEL-5 > 95.5 µM | PC-3 > 86.7 µM | K562 99.8 µM | SF-295 65 µM | SF-539 43.4 µM | HCC 2998 > 100 µM | MDA-N > 100 µM

COC(=O)C(/C(=N/NC(N)=O)C(=O)Nc1ccc(C)cc1)c1nc2ccc([N+](=O)[O-])cc2nc1O (stereo not given)
inactive: T47D > 100 µM | SK-MEL-28 > 100 µM | SR > 100 µM | HOP-62 > 100 µM | U-251 > 100 µM | SNB-75 > 100 µM | Malme-3M > 100 µM | OVCAR-4 50.2 µM | MDA-MB-435 > 100 µM | MOLT-4 > 100 µM | UACC-62 > 100 µM | SK-MEL-5 57.9 µM | PC-3 > 100 µM | K562 > 100 µM | SF-295 > 100 µM | SF-539 > 100 µM | HCC 2998 70.1 µM | MDA-N > 100 µM

O=C(/C=C/c1ccc2c(c1)OCO2)CC(=O)C(=O)c1c[nH]c2ccccc12
inactive: T47D 29.4 µM | SK-MEL-28 > 100 µM | SR 31.6 µM | HOP-62 41.6 µM | U-251 30.8 µM | COLO 205 35.3 µM | UO-31 24.2 µM | SNB-75 29.3 µM | Malme-3M > 100 µM | MDA-MB-435 24.3 µM | MOLT-4 20.7 µM | UACC-62 44.2 µM | SK-MEL-5 58.3 µM | PC-3 37 µM | K562 24.2 µM | SF-295 61.8 µM | SF-539 32.4 µM | HCC 2998 16.3 µM | MDA-N 27.9 µM

CCOC(=O)N1[C@@H]2CCC[C@@H]2C(=O)[C@@H]2CCC[C@@H]21
inactive: T47D > 100 µM | SK-MEL-28 > 100 µM | SR > 100 µM | HOP-62 > 100 µM | U-251 > 100 µM | COLO 205 > 100 µM | SNB-75 > 100 µM | OVCAR-4 > 100 µM | MDA-MB-435 > 100 µM | MOLT-4 > 100 µM | UACC-62 > 100 µM | SK-MEL-5 > 100 µM | PC-3 > 100 µM | K562 > 100 µM | HCC 2998 > 100 µM | MDA-N > 100 µM

CCOC(=O)C(Cl)(NC(=O)c1ccc(F)cc1)C(F)(F)F (stereo not given)
inactive: T47D > 100 µM | SK-MEL-28 > 100 µM | SR > 100 µM | HOP-62 > 100 µM | U-251 > 100 µM | COLO 205 > 100 µM | UO-31 > 100 µM | SNB-75 77.3 µM | Malme-3M > 100 µM | OVCAR-4 > 100 µM | MDA-MB-435 > 100 µM | MOLT-4 > 100 µM | SK-MEL-5 > 100 µM | PC-3 > 100 µM | K562 > 100 µM | SF-295 > 100 µM | SF-539 > 100 µM | HCC 2998 > 100 µM | MDA-N > 100 µM

Nc1nc(N)nc(-c2cnc3ccccc3c2)n1
inactive: T47D > 100 µM | SK-MEL-28 > 100 µM | SR 37 µM | HOP-62 > 100 µM | U-251 > 100 µM | COLO 205 > 100 µM | UO-31 > 100 µM | SNB-75 85.7 µM | Malme-3M > 100 µM | MDA-MB-435 > 100 µM | MOLT-4 20.7 µM | UACC-62 72.1 µM | PC-3 > 100 µM | K562 > 100 µM | SF-295 > 100 µM | SF-539 > 100 µM | HCC 2998 > 100 µM | MDA-N > 100 µM

Cc1cccc(/C=C2\CCCCCC2=O)c1
inactive: T47D > 100 µM | SK-MEL-28 > 100 µM | SR > 100 µM | HOP-62 > 100 µM | U-251 > 100 µM | COLO 205 > 100 µM | UO-31 > 100 µM | SNB-75 > 100 µM | Malme-3M > 100 µM | OVCAR-4 > 100 µM | MDA-MB-435 > 100 µM | MOLT-4 99.8 µM | UACC-62 > 100 µM | SK-MEL-5 79.1 µM | PC-3 > 100 µM | K562 > 100 µM | SF-295 > 100 µM | HCC 2998 > 100 µM | MDA-N > 100 µM
